Results from US20190231705A1, “HIGH DRUG LOAD POLYMERIC NANOPARTICLE FORMULATIONS AND METHODS OF MAKING AND USING SAME” (Merck Sharp & Dohme Corp., priority 2018, published 2019).

Experiment: Solution content after 80K centrifugation
Format: physicochemical
Conditions: grazoprevir/HPMCAS-L nanoparticle suspension after 80k centrifugation

C=C[C@@H]1C[C@]1(NC(=O)[C@@H]1C[C@@H]2CN1C(=O)[C@H](C(C)(C)C)NC(=O)O[C@@H]1C[C@H]1CCCCCc1nc3ccc(OC)cc3nc1O2)C(=O)NS(=O)(=O)C1CC1 [grazoprevir, (1aR,5S,8S, 10R,22aR)-N-[(1R,2S)-1-[(cyclopropylsulfonamido)-carbonyl]-2-ethenylcyclopropyl]-14-methoxy-5-(2-methylpropan-2-yl)-3,6-dioxo-1,1a,3,4,5,6,9,10,18,-19,20,21,22,22a-tetradecahydro-8H-7,10-methanocyclopropa[18,19][1,10,3,6]dioxadiaza-cyclononadecino[11,12-b]quinoxaline-8-carboxamide]
% Grazoprevir in solution: 4.2%
